Laboratory results reported in article PMC7613515, “Reading and erasing of the phosphonium analogue of trimethyllysine by epigenetic proteins” (Communications Chemistry, 2022).

Key:
[1] = test system: KDM3AJmjC (T515–S1317); assay: MALDI-TOF demethylation assay, KDM3AJmjC; assay type: biochemical; conditions: 1 hr
Description: (§1) To investigate whether H3KP9me3 can be demethylated by other human KDM4 subfamily members, recombinant KDM4AJmjC (M1–L359) and KDM4DJmjC (M1–L358) were produced in E. coli following an adaption of literature procedures[38],[39]. […] To test the ability of KDM3 and KDM7 subfamily representatives to demethylate H3KP9me2 or H3KP9me3, KDM3AJmjC (T515–S1317) and KDM7BJmjC (M37–N483) were produced using baculovirus/sf9 and E. coli expression systems, respectively[40],[41]. The synthesis of a histone H3 mimic peptide H3KP9me2 substrate is challenging as the tri-alkylated phosphine group is susceptible to oxidation during synthesis of the protected amino acid and during SPPS requiring oxygen-free conditions. Thus, to investigate if KDM3AJmjC or KDM7BJmjC can catalyse demethylation of H3KP9me2, an appropriate H3KP9me2 substrate was prepared in situ from H3KP9me3 using KDM4EJmjC (2.0 µM), in the presence of KDM3AJmjC (2.0 µM) or KDM7BJmjC (2.0 µM).
(§2) A Bruker Daltonics MALDI-TOF/TOF AutoflexSpeed machine and Bruker MTP 384 target plates (polished steel BC, Part: 8280781) were used. The machine was controlled using Flex control (v. 3.4 build 135.10) and Compass for flex series (v. 1.4) software. Measurements were in the positive ion mode with the reflectron mode enabled. […] Samples were then analysed by MALDI-TOF. […]

[2] = test system: KDM4AJmjC (M1–L359); assay: MALDI-TOF demethylation assay, KDM4AJmjC; assay type: biochemical, human; conditions: KDM4AJmjC 2.4 µM, peptide 5.0 µM, 1 hr, duplicates
Description: as §1, §2

[3] = molecular target: T1, KDM4EJmjC (M1–Q337) (Homo sapiens, UniProt B2RXH2); assay: MALDI-TOF demethylation assay, KDM4EJmjC; assay type: biochemical
T1 construct: We chose human KDM4EJmjC (M1–Q337); made in house
T1 sequence (B2RXH2 1-337): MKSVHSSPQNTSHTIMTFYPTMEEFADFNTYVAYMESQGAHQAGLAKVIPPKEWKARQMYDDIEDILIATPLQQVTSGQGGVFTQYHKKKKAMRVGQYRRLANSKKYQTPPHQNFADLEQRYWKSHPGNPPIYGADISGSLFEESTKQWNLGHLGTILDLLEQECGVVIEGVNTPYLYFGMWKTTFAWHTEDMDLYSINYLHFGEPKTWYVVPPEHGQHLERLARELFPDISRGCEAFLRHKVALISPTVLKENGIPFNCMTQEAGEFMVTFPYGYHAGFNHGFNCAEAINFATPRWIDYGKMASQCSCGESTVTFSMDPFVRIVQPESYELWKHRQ
Description: Reactions were monitored using MALDI-TOF mass spectrometry (Fig. 5b–d).
A Bruker Daltonics MALDI-TOF/TOF AutoflexSpeed machine and Bruker MTP 384 target plates (polished steel BC, Part: 8280781) were used. The machine was controlled using Flex control (v. 3.4 build 135.10) and Compass for flex series (v. 1.4) software. Measurements were in the positive ion mode with the reflectron mode enabled. Incubations employed ProxiPlate-384™ (Perkin Elmer) plates into which was pipetted a solution of [H3_1-15K9me3 (10.0 µM), (+)-sodium L-ascorbate (1.0 mM), (NH4)2Fe(II)(SO4)2 (100 µM), di-sodium 2-oxoglutarate (200 µM) in buffer (HEPES (50 mM)) in MilliQ (pH 7.5)] (5.0 µL) using ClipTip™ (Thermo Scientific™) pipette tips and E1-ClipTip™ (Thermo Scientific™). The enzyme solution [KDM4EJmjC (1.0 µM) in HEPES (50 mM)] (5.0 µL) was added to initiate reaction at 37 °C. Reactions were quenched with formic acid in water (2%, 5.0 µL). Samples were then spotted onto a MALDI-TOF target plate (1.0 µL), MALDI matrix [sat. sol. α-cyano-4-hydroxy-cinnamic acid (10 mg·mL^−1) in {trifluoro acetic acid, acetonitrile and MilliQ (0.1:50:50)}] (1.0 µL) was added, mixed, and dried in air. Samples were then analysed by MALDI-TOF. Specific experiments were supplemented with catalase from bovine liver (C3155-50MG, Merck) (5.0 µM), bovine albumin serum (BSA, Perkin Elmer, CR84-100, DTPA purified 7.5%) (5.0 µM), or Tris(carboxyethyl)phosphine hydrochloride salt (TCEP, M02624, Fluorochem) (500 µM).

Substance: ARTKQTAR(KPme3)STGGKA [H3KP9me3, histone H3 residues 1–15 with trimethylphosphonium lysine analogue at position 9]
- demethylation in combination with KDM4EJmjC ([1]; KDM3AJmjC 2.0 µM plus KDM4EJmjC 2.0 µM, peptide 5.0 µM): produced H3KP9me2 (due to KDM4EJmjC catalysis), but did not result in masses consistent with H3KP9me1 or H3KP9
- demethylation ([1]; KDM3AJmjC 2.0 µM, H3KP9me2 prepared in situ with KDM4EJmjC): do not catalyse demethylation of H3K9me3 (as anticipated) or H3KP9me3
- demethylation [2]: substantial turnover to H3KP9me2
- demethylation in competition assay ([3]; H3K9me3 (5.0 µM) and H3KP9me3 (5.0 µM) in the same vessel, KDM4EJmjC 0.5 µM): no evidence that H3KP9me3 was converted to H3KP9me2 or H3KP9me2O
- relative substrate quality / rate ([3]; H3K9me3 versus H3KP9me3): demethylation rate is significantly slower for H3KP9me3 than for H3K9me3
- demethylation in omission controls ([3]; H3KP9me3: without KDM4EJmjC, Asc, Fe(II) or 2OG, H3K9me3: without Asc and Fe(II), 1 hr): little or no H3KP9me2 or H3KP9me2O formation
- demethylation ([3]; KDM4EJmjC 0.5 µM (H3KP9me3 also at 5.0 µM enzyme), peptide 5.0 or 6.0 µM, Asc 500 µM, Fe(II) 50 µM, 2OG 100 µM): only undergo a single demethylation (−14 Da) to give H3KP9me2
- effect of catalase with or without Asc or BSA ([3]; KDM4EJmjC 0.5 µM, catalase 5.0 µM, BSA 5.0 µM): did not substantially alter the amounts of H3KP9me2 or H3KP9me2O
- yield with TCEP rather than Asc ([3]; TCEP as a reducing agent, KDM4EJmjC 0.5 µM): slightly increased yields of H3KP9me2 and H3KP9me2O
- product formation ([3]; stoichiometric: KDM4EJmjC 5.0 µM, peptide 5.0 µM): faster H3KP9me2 and H3KP9me2O product formation, but no evidence for H3KP9me1 or H3KP9 formation
